Assay results published in paper PMC9076072 (RSC Advances, 2019).

Test system: RAW 264.7 macrophages
Test: Macrophage cytotoxicity seen in the anti-inflammatory assay

Row | Structure (SMILES) | Concentration at which macrophage cytotoxicity appeared [µM]
1 | C=C(C)[C@@H]1CC[C@]2(C(=O)O)CC[C@]3(C)[C@H](CC[C@@H]4[C@@]5(C)CC[C@H](O)C(C)(C)[C@@H]5CC[C@]43C)[C@@H]12 [Compound 1, Betulinic acid] | 20
2 | C[C@H]1[C@H](C)CC[C@]2(C(=O)O)CC[C@]3(C)C(=CC[C@@H]4[C@@]5(C)CC[C@H](O)C(C)(C)[C@@H]5CC[C@]43C)[C@H]12 [Compound 2, Ursolic acid] | 20
